# According to US20240365784A1, “AZOLE COMPOUNDS FOR CONTROLLING INVERTEBRATE PESTS” (FMC Corporation, priority 2021, published 2024):
# System: Brown Planthopper (Nilaparvata lugens (Stil))
# Assay: Test F: control of Brown Planthopper, spray, contact and/or systemic
# Format: in vivo
# Details: 120 h, sprayed at 10 ppm, rice stems, nymphs, assessed after 5 days
# Protocol: (§1) Test compounds were formulated using a solution containing 10% acetone, 90% water and 300 ppm Activator 90® non-ionic surfactant (Loveland Products, Loveland, Colorado, USA). The formulated compounds were applied in 1 mL of liquid through an atomizer nozzle positioned 1.27 cm (0.5 inches) above the top of each test unit. Test compounds were sprayed at the rates indicated, and each test was replicated three times.
# For evaluating control of Brown Planthopper (Nilaparvata lugens (Stil)) through contact and/or systemic means, the test unit consisted of a small open container with 6-10 25-day-old rice stems inside. White sand was added to the top of the soil prior to application of the test compound.
# Test compounds were formulated and sprayed at 50 ppm and/or 10 ppm. After spraying of the formulated test compound, the test units were allowed to dry for 1 h before they were post-infested with ˜15-20 nymphs (15-to-17-day-old). A black, screened cap was placed on the top of each test unit, and the test units were held for 5 days in a growth chamber at 28° C. and 65% relative humidity. Each test unit was then visually assessed for insect mortality.
row,SMILES,mortality at 10 ppm [%]
1,CC(c1ccc(SC(F)(F)F)cc1)c1c(F)cncc1-n1nccn1 (stereo not drawn) [Compound 8],≥ 80
2,"Fc1cncc(-n2nccn2)c1Cc1ccc(OC(F)(F)F)cc1 [Compound 1, 3-fluoro-5-(triazol-2-yl)-4-[[4(trifluoromethoxy)phenyl]methyl]pyridine]",≥ 80

# System: cotton melon aphid (Aphis gossypii (Glover))
# Assay: whole plant or invertebrate
# Format: in vivo
# Details: 144 h, sprayed at 50 ppm, okra plant, assessed after 6 days
# Protocol: as §1
# For evaluating control of cotton melon aphid (Aphis gossypii (Glover)) through contact and/or systemic means, the test unit consisted of a small open container with a 5-day-old okra plant inside. This was pre-infested with 30-40 insects on a piece of leaf according to the cut-leaf method, and the soil of the test unit was covered with a layer of sand.
# […] After spraying, the test units were maintained in a growth chamber for 6 days at 19° C. and 70% relative humidity. Each test unit was then visually assessed for insect mortality.
row,SMILES,mortality at 50 ppm [%]
1,Fc1cncc(-c2ncco2)c1Cc1ccc(OC(F)(F)F)cc1 [Compound 41],≥ 80
2,FC(F)Oc1ccc(Cc2c(Cl)cncc2-n2cccn2)cc1 [Compound 45],≥ 80
3,Fc1cncc(-n2nccn2)c1Cc1ccc(OC(F)(F)F)c(Br)c1 [Compound 69],≥ 80
4,CC(c1ccc(SC(F)(F)F)cc1)c1c(F)cncc1-n1ccnn1 (stereo not drawn) [Compound 11],≥ 80
5,Fc1cncc(-n2nccn2)c1Cc1cccc(OC(F)(F)C(F)F)c1 [Compound 65],≥ 80
6,CC(c1ccc(SC(F)(F)F)cc1)c1c(F)cncc1-n1nccn1 (stereo not drawn) [Compound 8],≥ 80
7,"CC(c1ccc(OC(F)(F)F)cc1)c1c(F)cncc1-n1nccn1 (stereo not drawn) [Compound 9, 3-fluoro-5-(triazol-2-yl)-4-[1-[4-(trifluoromethoxy)phenyl]ethyl]pyridine]",≥ 80
8,CCC(c1ccc(SC(F)(F)F)cc1)c1c(F)cncc1-n1nccn1 (stereo not drawn) [Compound 57],≥ 80
9,CC(c1ccc(SC(F)(F)F)cc1)c1c(Cl)cncc1-n1nccn1 (stereo not drawn) [Compound 14],≥ 80
10,CC(c1ccc(SC(F)(F)F)cc1)c1c(F)cncc1-c1nccs1 (stereo not drawn) [Compound 54],≥ 80
11,CC(c1ccc(SC(F)(F)F)cc1)c1c(F)cncc1-n1cncn1 (stereo not drawn) [Compound 52],≥ 80
12,FC(F)Oc1ccc(Cc2c(Cl)cncc2-n2nccn2)cc1 [Compound 46],≥ 80
13,Fc1cncc(-c2ncco2)c1Cc1ccc(SC(F)(F)F)cc1 [Compound 30],≥ 80
14,Fc1cc(Cc2c(Cl)cncc2-n2nccn2)ccc1C(F)(F)F [Compound 72],≥ 80
15,FC(F)(F)Sc1ccc(Cc2c(Cl)cncc2-c2nccs2)cc1 [Compound 35],≥ 80
16,FC(F)(F)Oc1ccc(Cc2c(I)cncc2-n2nccn2)cc1 [Compound 17],≥ 80

# Same assay, conditions: 144 h, tested at 10 ppm, okra plant, assessed after 6 days
row,SMILES,mortality at 10 ppm [%]
1,Fc1cncc(-c2ncco2)c1Cc1ccc(OC(F)(F)F)cc1 [Compound 41],≥ 80
2,CC(c1ccc(SC(F)(F)F)cc1)c1c(F)cncc1-n1nccn1 (stereo not drawn) [Compound 8],≥ 80
3,"CC(c1ccc(OC(F)(F)F)cc1)c1c(F)cncc1-n1nccn1 (stereo not drawn) [Compound 9, 3-fluoro-5-(triazol-2-yl)-4-[1-[4-(trifluoromethoxy)phenyl]ethyl]pyridine]",≥ 80
4,Fc1cncc(-c2ncco2)c1Cc1ccc(SC(F)(F)F)cc1 [Compound 30],≥ 80

# System: green peach aphid (Myzus persicae (Sulzer))
# Assay: whole plant or invertebrate
# Format: in vivo
# Details: 144 h, sprayed at 50 ppm, radish plant, assessed after 6 days
# Protocol: as §1
# For evaluating control of green peach aphid (Myzus persicae (Sulzer)) through contact and/or systemic means, the test unit consisted of a small open container with a 12-15-day-old radish plant inside. This was pre-infested by placing on a leaf of the test plant 30-40 aphids on a piece of leaf excised from a culture plant (cut-leaf method). The aphids moved onto the test plant as the leaf piece desiccated. After pre-infestation, the soil of the test unit was covered with a layer of sand.
# Test compounds were formulated and sprayed at 250 and/or 50 ppm. After spraying of the formulated test compound, each test unit was allowed to dry for 1 hour and then a black, screened cap was placed on top. The test units were held for 6 days in a growth chamber at 19-21° C. and 50-70% relative humidity. Each test unit was then visually assessed for insect mortality.
row,SMILES,mortality at 50 ppm [%]
1,Fc1cncc(-n2nccn2)c1Cc1ccc(OC(F)(F)F)c(Br)c1 [Compound 69],≥ 80
2,CC(c1ccc(SC(F)(F)F)cc1)c1c(F)cncc1-n1nccn1 (stereo not drawn) [Compound 8],≥ 80
3,"CC(c1ccc(OC(F)(F)F)cc1)c1c(F)cncc1-n1nccn1 (stereo not drawn) [Compound 9, 3-fluoro-5-(triazol-2-yl)-4-[1-[4-(trifluoromethoxy)phenyl]ethyl]pyridine]",≥ 80
4,CC(c1ccc(SC(F)(F)F)cc1)c1c(Cl)cncc1-n1nccn1 (stereo not drawn) [Compound 14],≥ 80
5,CC(c1ccc(SC(F)(F)F)cc1)c1c(F)cncc1-n1cncn1 (stereo not drawn) [Compound 52],≥ 80
6,Fc1cc(Cc2c(Cl)cncc2-n2nccn2)ccc1C(F)(F)F [Compound 72],≥ 80
7,"Fc1cncc(-n2nccn2)c1Cc1ccc(OC(F)(F)F)cc1 [Compound 1, 3-fluoro-5-(triazol-2-yl)-4-[[4(trifluoromethoxy)phenyl]methyl]pyridine]",≥ 80

# System: sweetpotato whitefly (Bemisia tabaci (Gennadius))
# Assay: whole plant or invertebrate
# Format: in vivo
# Details: 312 h, sprayed at 50 ppm, cotton plant infested with eggs, assessed after 13 days
# Protocol: as §1
# For evaluating control of the sweetpotato whitefly (Bemisia tabaci (Gennadius)) through contact and/or systemic means, the test unit consisted of a small open container with a 12-14-day-old cotton plant inside. Prior to the spray application, both cotyledons were removed from the plant, leaving one true leaf for the assay. Adult whiteflies were allowed to lay eggs on the plant and then were removed from the test unit. Cotton plants infested with at least 15 eggs were submitted to the test for spraying.
# […] After spraying, the test units were allowed to dry for 1 hour. The cylinders were then removed, and the units were taken to a growth chamber and held for 13 days at 28° C. and 50-70% relative humidity. Each test unit was then visually assessed for insect mortality.
row,SMILES,mortality at 50 ppm [%]
1,FC(F)Oc1ccc(Cc2c(Cl)cncc2-n2cccn2)cc1 [Compound 45],≥ 70
2,Fc1cncc(-n2nccn2)c1Cc1ccc(OC(F)(F)F)c(Br)c1 [Compound 69],≥ 70
3,"CC(c1ccc(OC(F)(F)F)cc1)c1c(F)cncc1-n1nccn1 (stereo not drawn) [Compound 9, 3-fluoro-5-(triazol-2-yl)-4-[1-[4-(trifluoromethoxy)phenyl]ethyl]pyridine]",≥ 70
4,CCC(c1ccc(SC(F)(F)F)cc1)c1c(F)cncc1-n1nccn1 (stereo not drawn) [Compound 57],≥ 70
5,CC(c1ccc(SC(F)(F)F)cc1)c1c(Cl)cncc1-n1nccn1 (stereo not drawn) [Compound 14],≥ 70
6,CC(c1ccc(SC(F)(F)F)cc1)c1c(F)cncc1-c1nccs1 (stereo not drawn) [Compound 54],≥ 70
7,CC(c1ccc(SC(F)(F)F)cc1)c1c(F)cncc1-n1cncn1 (stereo not drawn) [Compound 52],≥ 70
8,FC(F)Oc1ccc(Cc2c(Cl)cncc2-n2nccn2)cc1 [Compound 46],≥ 70
9,Fc1cc(Cc2c(Cl)cncc2-n2nccn2)ccc1C(F)(F)F [Compound 72],≥ 70
10,FC(F)(F)Sc1ccc(Cc2c(Cl)cncc2-c2nccs2)cc1 [Compound 35],≥ 70
11,FC(F)(F)Oc1ccc(Cc2c(I)cncc2-n2nccn2)cc1 [Compound 17],≥ 70
12,"Fc1cncc(-n2nccn2)c1Cc1ccc(OC(F)(F)F)cc1 [Compound 1, 3-fluoro-5-(triazol-2-yl)-4-[[4(trifluoromethoxy)phenyl]methyl]pyridine]",≥ 70

# Same assay, conditions: 312 h, tested at 10 ppm, cotton plant infested with eggs, assessed after 13 days
row,SMILES,mortality at 10 ppm [%]
1,CCC(c1ccc(SC(F)(F)F)cc1)c1c(F)cncc1-n1nccn1 (stereo not drawn) [Compound 57],≥ 70
2,FC(F)Oc1ccc(Cc2c(Cl)cncc2-n2nccn2)cc1 [Compound 46],≥ 70

# System: corn planthopper (Peregrinus maidis (Ashmead))
# Assay: whole plant or invertebrate
# Format: in vivo
# Details: 144 h, sprayed at 10 ppm, corn plant, nymphs, assessed after 6 days
# Protocol: as §1
# For evaluating control of corn planthopper (Peregrinus maidis (Ashmead)) through contact and/or systemic means, the test unit consisted of a small open container with a 3-4-day-old corn (maize) plant inside. White sand was added to the top of the soil prior to application of the test compound.
# Test compounds were formulated and sprayed at 250 and/or 50 ppm and/or 10 ppm. After spraying of the formulated test compound, the test units were allowed to dry for 1 h before they were post-infested with ˜15-20 nymphs (18-to-21-day-old). A black, screened cap was placed on the top of each test unit, and the test units were held for 6 days in a growth chamber at 22-24° C. and 50-70% relative humidity. Each test unit was then visually assessed for insect mortality.
row,SMILES,mortality at 10 ppm [%]
1,Fc1cncc(-c2ncco2)c1Cc1ccc(OC(F)(F)F)cc1 [Compound 41],≥ 80
2,FC(F)Oc1ccc(Cc2c(Cl)cncc2-n2cccn2)cc1 [Compound 45],≥ 80
3,Fc1cncc(-n2nccn2)c1Cc1ccc(OC(F)(F)F)c(Br)c1 [Compound 69],≥ 80
4,CC(c1ccc(SC(F)(F)F)cc1)c1c(F)cncc1-n1nccn1 (stereo not drawn) [Compound 8],≥ 80
5,"CC(c1ccc(OC(F)(F)F)cc1)c1c(F)cncc1-n1nccn1 (stereo not drawn) [Compound 9, 3-fluoro-5-(triazol-2-yl)-4-[1-[4-(trifluoromethoxy)phenyl]ethyl]pyridine]",≥ 80
6,CCC(c1ccc(SC(F)(F)F)cc1)c1c(F)cncc1-n1nccn1 (stereo not drawn) [Compound 57],≥ 80
7,CC(c1ccc(SC(F)(F)F)cc1)c1c(F)cncc1-c1nccs1 (stereo not drawn) [Compound 54],≥ 80
8,FC(F)Oc1ccc(Cc2c(Cl)cncc2-n2nccn2)cc1 [Compound 46],≥ 80
9,Fc1cncc(-c2ncco2)c1Cc1ccc(SC(F)(F)F)cc1 [Compound 30],≥ 80
10,Fc1cc(Cc2c(Cl)cncc2-n2nccn2)ccc1C(F)(F)F [Compound 72],≥ 80
11,"Fc1cncc(-n2nccn2)c1Cc1ccc(OC(F)(F)F)cc1 [Compound 1, 3-fluoro-5-(triazol-2-yl)-4-[[4(trifluoromethoxy)phenyl]methyl]pyridine]",≥ 80

# Same assay, conditions: 144 h, sprayed at 50 ppm, corn plant, nymphs, assessed after 6 days
row,SMILES,mortality at 50 ppm [%]
1,Fc1cncc(-c2ncco2)c1Cc1ccc(OC(F)(F)F)cc1 [Compound 41],≥ 80
2,FC(F)Oc1ccc(Cc2c(Cl)cncc2-n2cccn2)cc1 [Compound 45],≥ 80
3,Fc1cncc(-n2nccn2)c1Cc1ccc(OC(F)(F)F)c(Br)c1 [Compound 69],≥ 80
4,CC(c1ccc(SC(F)(F)F)cc1)c1c(F)cncc1-n1ccnn1 (stereo not drawn) [Compound 11],≥ 80
5,Fc1cncc(-n2nccn2)c1Cc1cccc(OC(F)(F)C(F)F)c1 [Compound 65],≥ 80
6,CC(c1ccc(SC(F)(F)F)cc1)c1c(F)cncc1-n1nccn1 (stereo not drawn) [Compound 8],≥ 80
7,"CC(c1ccc(OC(F)(F)F)cc1)c1c(F)cncc1-n1nccn1 (stereo not drawn) [Compound 9, 3-fluoro-5-(triazol-2-yl)-4-[1-[4-(trifluoromethoxy)phenyl]ethyl]pyridine]",≥ 80
8,CCC(c1ccc(SC(F)(F)F)cc1)c1c(F)cncc1-n1nccn1 (stereo not drawn) [Compound 57],≥ 80
9,CC(c1ccc(SC(F)(F)F)cc1)c1c(F)cncc1-c1nccs1 (stereo not drawn) [Compound 54],≥ 80
10,CC(c1ccc(SC(F)(F)F)cc1)c1c(F)cncc1-n1cncn1 (stereo not drawn) [Compound 52],≥ 80
11,FC(F)Oc1ccc(Cc2c(Cl)cncc2-n2nccn2)cc1 [Compound 46],≥ 80
12,Fc1cncc(-c2ncco2)c1Cc1ccc(SC(F)(F)F)cc1 [Compound 30],≥ 80
13,Fc1cc(Cc2c(Cl)cncc2-n2nccn2)ccc1C(F)(F)F [Compound 72],≥ 80
14,FC(F)(F)Sc1ccc(Cc2c(Cl)cncc2-c2nccs2)cc1 [Compound 35],≥ 80
15,"Fc1cncc(-n2nccn2)c1Cc1ccc(OC(F)(F)F)cc1 [Compound 1, 3-fluoro-5-(triazol-2-yl)-4-[[4(trifluoromethoxy)phenyl]methyl]pyridine]",≥ 80
